Assay results: patent US20260232578A1, “COMPOSITIONS AND METHODS FOR TRANSMUCOSAL ABSORPTION” (Tonix Pharma Limited, priority 2012, published 2026)
Where two headings read alike, the source gives them in different places.

Assays:
muscarinic M2 receptor [1] = molecular target: T1, muscarinic M2 receptor (Homo sapiens, UniProt P08172); assay: G-protein-dependent signal transduction, intracellular Ca2+ mobilization
muscarinic M2 receptor [2] = molecular target: T1, muscarinic M2 receptor; assay: Equilibrium receptor binding, recombinant human receptor; design: expressed in transfected cells
[3] = Beagle; for plasma level adjusted to 0.14 mg/kg: Hucker IV
Protocol: Doses were expressed as free base, and so should be adjusted by MW Free Base 275 g/mole/MW HCl salt 312 g/mole. […] In our Beagle studies, the dose was 0.14 mg/kg, which is approximately 1/12.6 the dose of the Hucker studies.

in vivo = details: female, beagle, dog; for AUC(0-t) / AUC(0-inf): 1.79 mg; for AUC(0-t): AUC0-24 h; for AUC(0-inf): AUC0-∞h
Protocol: The protocol was designed as outlined in Table 23.
The method requires a lithium heparinized plasma sample volume of 200 μl. The extraction is a liquid liquid extraction with hexane, and the extracts are injected using an HPLC system and an […] (Applied Biosystems) for the MS/MS detection, with a “Onyx monolithic Phenomenex C18 100×3.0 mm” column.
Concentrations of the samples are calculated using Watson® 7.2.0.03 directly from chromatograms after automatic integration by Analyst® 1.5.1 and expressed as ng/mL. Mean plasma concentrations will be calculated (when calculable, i.e. n>2) using individual concentrations and will be expressed with the corresponding standard deviation value and variation coefficients (when calculable, i.e. n>3) (with CV(%)=(SD/mean)×100). The individual plasma concentrations are tabulated for each dog and scheduled sampling time. Concentrations below the LLOQ are designated as “BLQ.” All BLQ concentrations are substituted by zero for calculation of the descriptive statistics of the concentrations.
Pharmacokinetic analysis is carried out using […]® (Version 4.3 (Thermo Electron Corporation)). An independent model (non compartmental analysis) is used. All BLQ values in the absorption phase are substituted by zero, except for BLQ values between evaluable concentrations, which are treated as missing values, before the calculation of the pharmacokinetic variables. The terminal BLQ values are ignored. The following pharmacokinetic parameters are calculated:
5 non-naive female dogs are used, each dog receiving the test substance by oral administration via nasogastric tube to the stomach (NG) administration, sublingual administration (SL), and by intravenous (IV) administration. There is a “wash-out” period of at least two weeks between each type of administration. Blood samples are drawn as follows:
A single NG dose of 0.14 mg/kg (under a volume of 5 ml/kg and a solution concentration of 0.028 mg/mL) is administered.
After a wash-out period of at least 2 weeks, dogs are sedated using propofol (6.5 mg/kg IV). They will be then given a single sublingual dose of 0.14 mg/kg (under a volume of 0.056 mL/kg and a solution concentration of 2.5 mg/mL).
After a wash-out period of at least 2 weeks, dogs are given a single IV dose of 0.14 mg/kg (under a volume of 1 mL/kg, bolus of approximately 30 sec, and a solution concentration of 0.14 mg/mL).
Blood sampling was designed to minimize animal suffering and to ensure the quality of the biological samples, and was adapted from basic procedures commonly used in studies performed in dogs. Serial blood samples (1 tube of approximately 5 mL) are collected from a jugular vein using vacuum tubes containing lithium heparin. After sealing each tube, the blood samples are manually agitated and stored on ice until centrifugation (within 30 minutes of sampling). The samples are centrifuged at 1500 g, at 4° C., for 10 minutes. The entire resultant plasma obtained from each tube is immediately transferred to suitably labeled polypropylene tubes (3 aliquots of plasma of at least 500 μl each), which are stored upright at approximately −80° C. and protected from light until bioanalysis.
The dogs are fasted overnight before each administration, and food is given to the dogs 4 hours after each treatment. […] In each of the three routes, a potassium phosphate buffer (pH 7.4) is used as the vehicle.
As referred to in Example 4, a study was designed in order to assess the effects of the compositions and methods of the invention. […] The pharmacokinetic parameters were then calculated. A summary of the study design is as follows:
Blood was collected in a fasted condition for all three routes of administration. […] Briefly, the method involved liquid-liquid extraction with hexane. The extracts were injected using an HPLC system and an API4000® (Applied Biosystems) for the MS/MS detection, with an “Onyx monolithic Phenomenex C18 100×3.0 mm” column.

[4] = cited from earlier work

T1 sequence (P08172 whole entry): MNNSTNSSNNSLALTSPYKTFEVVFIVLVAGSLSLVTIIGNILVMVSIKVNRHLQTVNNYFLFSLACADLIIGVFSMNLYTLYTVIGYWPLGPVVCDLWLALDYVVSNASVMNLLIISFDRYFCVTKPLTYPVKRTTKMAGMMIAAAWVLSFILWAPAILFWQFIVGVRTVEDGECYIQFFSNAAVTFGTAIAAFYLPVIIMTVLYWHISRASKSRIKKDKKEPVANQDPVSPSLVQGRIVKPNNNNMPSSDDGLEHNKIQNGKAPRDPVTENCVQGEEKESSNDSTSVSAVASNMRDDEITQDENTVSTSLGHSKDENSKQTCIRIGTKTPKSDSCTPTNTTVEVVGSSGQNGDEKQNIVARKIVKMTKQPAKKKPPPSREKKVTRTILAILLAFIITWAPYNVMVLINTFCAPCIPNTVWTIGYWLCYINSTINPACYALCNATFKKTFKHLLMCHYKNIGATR

CNCCC=C1c2ccccc2C=Cc2ccccc21 [norcyclobenzaprine, 3-(5H-dibenzo[a,d]cyclohepten-5-ylidene)-N-methyl-1-propanamine]
IC50 (muscarinic M2 receptor [1]): 33 nM | Ki (muscarinic M2 receptor [2]): 76 nM

CN(C)CCC=C1c2ccccc2C=Cc2ccccc21 [cyclobenzaprine, 3-(5H-dibenzo[a,d]cyclohepten-5-ylidene)-N,N-dimethyl-1-propanamine]
plasma level adjusted to 0.14 mg/kg ([3]; 0.5 h): 34.1 ng/mL | plasma level adjusted to 0.14 mg/kg ([3]; 2 hours): 47.6 ng/mL | plasma level adjusted to 0.14 mg/kg ([3]; 6 h): 35.7 ng/mL | peak plasma level adjusted to 0.14 mg/kg ([3]; Hucker PO gelatin capsule, at 2 hours): 115.9 ng/mL | increase in bioavailability, sublingual vs PO (in vivo): ~77 fold | AUC(0-t) (in vivo): 127 ± 37.1 ng·h/mL | AUC(0-inf) (in vivo): 129 ± 36.4 ng·h/mL | bioavailability (in vivo; bioavailability, conclusion): ~100% | concentration at 0.5 h (in vivo; iv, 0.14 mg/kg, plasma level): 52.3 ng/mL | concentration at 6 h (in vivo; iv, 0.14 mg/kg, plasma level): 3.4 ng/mL | AUC(0-t) (in vivo; iv): 43.5 ± 3.77 ng·h/mL | AUC(0-inf) (in vivo; iv): 44.9 ± 4.15 ng·h/mL | plasma level (radioactive equivalents) ([4]; Beagles, 1.76 mg/kg by mouth, 1 hr (Hucker)): 1.14 μg/ml [equivalent] | plasma level (radioactive equivalents) ([4]; Beagles, 1.76 mg/kg by mouth, 2 hr (Hucker)): 1.46 μg/ml [equivalent] | plasma level (radioactive equivalents) ([4]; Beagles, 1.76 mg/kg by mouth, 4 hr (Hucker)): 0.92 μg/ml [equivalent] | plasma level (radioactive equivalents) ([4]; Beagles, 1.76 mg/kg by mouth, 6 hr (Hucker)): 0.58 μg/ml [equivalent] | plasma level (radioactive equivalents) ([4]; Beagles, 1.76 mg/kg by mouth, 24 hr (Hucker)): 0.10 μg/ml [equivalent] | plasma level (radioactive equivalents) ([4]; Beagles, 1.76 mg/kg cyclobenzaprine HCl by mouth, 0.5 h (Hucker)): 0.72 μg/ml [equivalent] | plasma level, Hucker dose adjusted for 0.14 mg/kg ([4]; IV (saline), t 0.5 h): 34.1 ng/mL | plasma level, Hucker dose adjusted for 0.14 mg/kg ([4]; IV (saline), t 1 h): 42.1 ng/mL | plasma level, Hucker dose adjusted for 0.14 mg/kg ([4]; IV (saline), t 2 h): 47.6 ng/mL | plasma level, Hucker dose adjusted for 0.14 mg/kg ([4]; IV (saline), t 4 h): 43.7 ng/mL | plasma level, Hucker dose adjusted for 0.14 mg/kg ([4]; IV (saline), t 6 h): 35.7 ng/mL | plasma level, Hucker dose adjusted for 0.14 mg/kg ([4]; IV (saline), t 24 h): 9.5 ng/mL | plasma level, Hucker dose adjusted for 0.14 mg/kg ([4]; PO (gelatin capsule), t 0.5 h): 57.1 ng/mL | plasma level, Hucker dose adjusted for 0.14 mg/kg ([4]; PO (gelatin capsule), t 1 h): 90.5 ng/mL | plasma level, Hucker dose adjusted for 0.14 mg/kg ([4]; PO (gelatin capsule), t 2 h): 115.9 ng/mL | plasma level, Hucker dose adjusted for 0.14 mg/kg ([4]; PO (gelatin capsule), t 4 h): 73.0 ng/mL | plasma level, Hucker dose adjusted for 0.14 mg/kg ([4]; PO (gelatin capsule), t 6 h): 46.0 ng/mL | plasma level, Hucker dose adjusted for 0.14 mg/kg ([4]; PO (gelatin capsule), t 24 h): 7.9 ng/mL | plasma level (radioactive equivalents) ([4]; dogs, 2 mg/kg intravenous in saline, 0.5 h (Hucker)): 0.43 μg/ml [equivalent] | plasma level (radioactive equivalents) ([4]; dogs, 2 mg/kg intravenous in saline, 1 hr (Hucker)): 0.53 μg/ml [equivalent] | plasma level (radioactive equivalents) ([4]; dogs, 2 mg/kg intravenous in saline, 2 hr (Hucker)): 0.60 μg/ml [equivalent] | plasma level (radioactive equivalents) ([4]; dogs, 2 mg/kg intravenous in saline, 4 hr (Hucker)): 0.55 μg/ml [equivalent] | plasma level (radioactive equivalents) ([4]; dogs, 2 mg/kg intravenous in saline, 6 hr (Hucker)): 0.45 μg/ml [equivalent] | plasma level (radioactive equivalents) ([4]; dogs, 2 mg/kg intravenous in saline, 24 hr (Hucker)): 0.12 μg/ml [equivalent]
